The results in this text go back to patent publication US8431596B2 (Cancer Research Technology Limited, priority 2007, dated 2013).

The target of the test is T1, AXL (human catalytic domain) (Homo sapiens, UniProt P30530).
T1 construct: purchased Upstate Ltd. 14-512
T1 sequence (P30530 473-894): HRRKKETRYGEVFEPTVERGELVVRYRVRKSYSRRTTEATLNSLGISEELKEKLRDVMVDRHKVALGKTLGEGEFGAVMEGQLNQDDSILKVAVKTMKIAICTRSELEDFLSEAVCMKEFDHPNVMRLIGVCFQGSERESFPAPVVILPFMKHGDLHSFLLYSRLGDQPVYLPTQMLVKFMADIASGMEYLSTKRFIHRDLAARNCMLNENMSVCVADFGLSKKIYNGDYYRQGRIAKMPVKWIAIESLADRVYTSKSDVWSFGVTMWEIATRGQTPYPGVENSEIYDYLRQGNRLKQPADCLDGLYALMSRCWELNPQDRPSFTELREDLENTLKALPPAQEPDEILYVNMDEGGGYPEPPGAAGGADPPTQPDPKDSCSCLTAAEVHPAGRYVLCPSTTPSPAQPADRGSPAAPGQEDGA
The test can be described thus: AXL (human catalytic domain) Enzyme Activity Assay (IMAP fluorescence polarisation). It is filed as biochemical. In outline: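 IMAP FP readout (Ex485/Em535, after overnight binding) measured inhibition of the human AXL catalytic domain (aa473-894, 15 nM final) acting on 100 nM 5FAM-CSK-tide at 150 μM ATP, equal to KM. Reactions ran 60 min at room temperature in pH 7.0 HEPES buffer; IC50 from 10-point curves.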
For orientation: Polarisation of emitted light reports the rotation of a fluorescent probe.

[1] abbreviates: further data set (WW-001 through WW-169, XX-001 through XX-469, YY-001 through YY-016, ZZ-001 through ZZ-003), 150 μM ATP.
Setting [2] is: first data set, recombinant AXL isoform 1 aa473-894, 150 μM ATP.

pIC50: −log10 of the molar value.

A word on the pIC50: it is the negative decadic logarithm of the IC50, by convention in mol/L. Under setting [1], `Cc1cc(COc2cccc(-c3cccc4nc(Nc5ccc(OCCN6CCCC6)cc5)nn34)c2)nn1C` [XX-460] showed a pIC50 of 6.00 to 7.00.
Take `CN(C)CCOc1cccc(Nc2nc3cccc(-c4ccc5c(c4)OCCO5)n3n2)c1` [XX-074]: the pIC50 under setting [2] is more than 6.00 and the pIC50 under setting [1] was not below 7.00.
`COc1ccc(-c2cccc3nc(Nc4cccc(N(C)C(=O)C(C)N5CCOCC5)c4)nn23)cc1` (stereo not drawn) [XX-391] had a pIC50 under setting [1] of 6.00 to 7.00.
With `NC(=O)c1ccc(-c2cccc3nc(NC(=O)C4CC4)nn23)cc1` [WW-019], the pIC50 runs as follows: under setting [2], 5.00 to 6.00; under setting [1], 5.00 to 6.00.
`CCc1nnc(NCCOc2ccc(Nc3nc4cccc(-c5ccc(OC)cc5)n4n3)cc2)[nH]1` [XX-030]: the pIC50 was more than 6.00 under setting [2] and 6.00 to 7.00 under setting [1].
Under setting [1], `CC(CN)Oc1ccc(Nc2nc3cccc(-c4ccc5c(c4)OCCO5)n3n2)cc1` (stereo not drawn) [XX-118] had a pIC50 not below 7.00.
As to `COc1ccc(-c2cccc3nc(NCC4CC4)nn23)cc1` [XX-003, Cyclopropylmethyl-[5-(4-methoxy-phenyl)-[1,2,4]triazolo[1,5-a]pyridin-2-yl]-amine], the pIC50 reads like this: under setting [2], 5.00 to 6.00; under setting [1], 6.00 to 7.00.
Under setting [1], `CCN(CC)CC(=O)Nc1cccc(Nc2nc3cccc(-c4ccc5c(c4)OCCO5)n3n2)c1` [XX-120] had a pIC50 of 6.00 to 7.00.
The same measure, in the same setting: the same measure for `Cc1ccc(-c2cccc3nc(Nc4ccc(OCCN5CCCC5)cc4)nn23)cc1F` [XX-280]: not below 7.00.
As for `O=S(=O)(Cc1cccc(C(F)(F)F)c1)n1cc(-c2cccc3nc(Nc4ccc(OCCN5CCCC5)cc4)nn23)cn1` [XX-287], the pIC50 under setting [1] is 6.00 to 7.00.
The same measure, in the same setting: the same measure for `Clc1ccc(-c2cccc3nc(Nc4ccc(OCCN5CCCC5)cc4)nn23)s1` [XX-299]: 6.00 to 7.00.
The same measure, in the same setting: to `O=C(Nc1ccc(Cl)cc1)Nc1cccc(-c2cccc3nc(Nc4ccc(OCCN5CCCC5)cc4)nn23)c1` [XX-233] belongs 5.00 to 6.00.
`O=C(Nc1nc2cccc(-c3cccc(-n4cccn4)c3)n2n1)C1CC1` [WW-137]: the negative logarithm of the IC50 (pIC50) under setting [2] was 5.00 to 6.00 and the pIC50 under setting [1] is 5.00 to 6.00.
In turn, `Cc1cc(CNc2cccc(-c3cccc4nc(Nc5ccc(OCCN6CCCC6)cc5)nn34)c2)no1` [XX-446] had a pIC50 under setting [1] of 6.00 to 7.00.
Regarding `COc1ccc(-c2cccc3nc(NC(=O)C4CC4(F)F)nn23)cc1` (stereo not drawn) [WW-125], the pIC50 reads like this: under setting [2], 5.00 to 6.00; under setting [1], 5.00 to 6.00.
`c1cc(-c2ccc3c(c2)OCCO3)n2nc(Nc3ccc(N4CCNCC4)cc3)nc2c1` [XX-060]: the pIC50 is, setting by setting: under setting [2], more than 6.00; under setting [1], not below 7.00.
Turning to `O=C(CCN1CCCC1)Nc1cccc(Nc2nc3cccc(-c4ccc5c(c4)OCCO5)n3n2)c1` [XX-109], the pIC50 under setting [1] was 6.00 to 7.00.
Regarding `CCN(CC)CC(=O)Nc1ccc(Nc2nc3cccc(-c4ccc5c(c4)OCCO5)n3n2)cc1` [XX-119], the pIC50 under setting [1] was 6.00 to 7.00.
On to `CS(=O)(=O)Nc1ccc(-c2cccc3nc(NC(=O)C4CC4)nn23)cc1` [WW-017], for which the pIC50 was 5.00 to 6.00 under setting [2] and 5.00 to 6.00 under setting [1].
Under setting [1], `CC(c1ccc(-c2cccc3nc(Nc4ccc(OCCN5CCCC5)cc4)nn23)cc1)N(C)C` (stereo not drawn) [XX-248] gave a pIC50 of 6.00 to 7.00.
Take `COc1ccc(-c2cccc3nc(Nc4ccc(OCCN5CCCC5)c(OC)c4)nn23)cc1` [XX-066]: the pIC50 runs as follows: under setting [2], more than 6.00; under setting [1], not below 7.00.
Regarding `NCc1cc2cc(Nc3nc4cccc(-c5ccc6c(c5)OCCO6)n4n3)ccc2o1` [XX-068], the pIC50 under setting [2] was more than 6.00 and the negative-log IC50 (pIC50) under setting [1] was not below 7.00.
In the same order, the values of `COc1ccc(-c2cccc3nc(Nc4cccc(OCCCN)c4)nn23)cc1` [XX-045] are more than 6.00 and 6.00 to 7.00.
Under setting [1], `c1cc(-c2cn[nH]c2)cc(-c2cccc3nc(Nc4ccc(OCCN5CCCC5)cc4)nn23)c1` [XX-167] had a pIC50 not below 7.00.
For `CN(C)CCOc1ncc(Nc2nc3cccc(-c4ccc5c(c4)OCCO5)n3n2)cn1` [XX-078], the pIC50 is more than 6.00 under setting [2] and 6.00 to 7.00 under setting [1].
Consider `CN(C)CCNC(=O)c1ccc(-c2cccc3nc(NC(=O)C4CC4)nn23)cc1` [WW-009, 4-[2-(Cyclopropanecarbonyl-amino)-[1,2,4]triazolo[1,5-a]pyridin-5-yl]-N-(2-dimethylamino-ethyl)-benzamide], for which the pIC50 under setting [2] is 5.00 to 6.00 and the pIC50 under setting [1] was 5.00 to 6.00.
For `c1cc(-c2ccc3c(c2)OCCO3)n2nc(Nc3ccc(OCCCN4CCCC4)cc3)nc2c1` [XX-312], the pIC50 under setting [1] is not below 7.00.
The same measure, in the same setting: to `O=C(Nc1ccc(-c2cccc3nc(Nc4ccc(OCCN5CCCC5)cc4)nn23)cc1)c1ccccc1` [XX-221, N-(4-{2-[4-(2-Pyrrolidin-1-yl-ethoxy)-phenylamino]-[1,2,4]triazolo[1,5-a]pyridin-5-yl}-phenyl)-benzamide] belongs 5.00 to 6.00.
Turning to `CNC(=O)COc1ccc(Nc2nc3cccc(-c4ccc(OC)cc4)n3n2)cc1` [XX-035], the pIC50 was 5.00 to 6.00 under setting [2] and not below 7.00 under setting [1].
With `COc1ccc(-c2cccc3nc(Nc4ccnc(C(=O)NCCN5CCCC5)c4)nn23)cc1` [XX-386], the pIC50 under setting [1] is 5.00 to 6.00.
In turn, `COCc1ccc(-c2cccc3nc(Nc4ccc(OCCN5CCCC5)cc4)nn23)cc1` [XX-217] showed a pIC50 under setting [1] of 6.00 to 7.00.
Same read-out and setting: to `O=C(Cn1cc(-c2cccc3nc(Nc4ccc(OCCN5CCCC5)cc4)nn23)cn1)c1ccccc1` [XX-346] belongs 6.00 to 7.00.
With `O=C(Nc1nc2cccc(-c3ccc4occc4c3)n2n1)C1CC1` [WW-133], the pIC50 under setting [2] was more than 6.00 and the pIC50 under setting [1] is 6.00 to 7.00.
On to `O=C(Nc1nc2cccc(-c3ccc4c(c3)OCCO4)n2n1)C1CC1` [WW-102], for which the pIC50 reads like this: under setting [2], more than 6.00; under setting [1], 6.00 to 7.00.
For the compound `CCOC(=O)c1cccc(-c2cccc3nc(Nc4ccc(OCCN5CCCC5)cc4)nn23)c1` [XX-089], the pIC50 under setting [1] was 5.00 to 6.00.
The same measure, in the same setting: to `FC(F)(F)c1cc(-c2cccc3nc(Nc4ccc(OCCN5CCCC5)cc4)nn23)ccc1Cl` [XX-291] belongs 6.00 to 7.00.
As for `O=C(Nc1nc2cccc(-c3ccc4c(c3)CCO4)n2n1)C1CC1` [WW-159], the pIC50 is more than 6.00 under setting [2] and 6.00 to 7.00 under setting [1].
Turning to `CCn1cc(-c2ccc(-c3cccc4nc(Nc5ccc(OCCN6CCCC6)cc5)nn34)cc2)cn1` [XX-191], the pIC50 under setting [1] was 6.00 to 7.00.
Same read-out and setting: to `O=S(=O)(c1ccc(Nc2nc3cccc(-c4ccc5c(c4)OCCO5)n3n2)cc1)N1CCNCC1` [XX-145] belongs 6.00 to 7.00.
As to `O=C(Nc1nc2cccc(-c3cccs3)n2n1)C1CC1` [WW-057], the pIC50 runs as follows: under setting [2], 5.00 to 6.00; under setting [1], 5.00 to 6.00.
In the case of `NC(=O)c1cccc(-c2cccc3nc(Nc4ccc(OCCN5CCCC5)cc4)nn23)c1` [XX-183], under setting [1], the pIC50 was 5.00 to 6.00.
In the case of `O=C(Nc1nc2cccc(-c3ccc(Oc4ccccc4)cc3)n2n1)C1CC1` [WW-162], the pIC50 is, setting by setting: under setting [2], 5.00 to 6.00; under setting [1], 5.00 to 6.00.
In the case of `CCN(CC)CCC(=O)Nc1ccc(Nc2nc3cccc(-c4ccc5c(c4)OCCO5)n3n2)cc1` [XX-122], the negative-log IC50 (pIC50) under setting [1] is 6.00 to 7.00.
Still for that read-out and setting: to `CCN(CC)CCOc1cc(Nc2nc3cccc(-c4cnn(Cc5ccccc5)c4)n3n2)ccn1` [XX-387] belongs 6.00 to 7.00.
Under setting [1], `c1cc(NCc2nc3c(s2)CCCC3)cc(-c2cccc3nc(Nc4ccc(OCCN5CCCC5)cc4)nn23)c1` [XX-447] had a pIC50 of 6.00 to 7.00.
Under setting [1], `FC(F)(F)Oc1ccc(-c2cccc3nc(Nc4ccc(OCCN5CCCC5)cc4)nn23)cc1` [XX-244] gave a pIC50 of 6.00 to 7.00.
For the compound `c1cc(-c2cnn(CCN3CCOCC3)c2)n2nc(Nc3ccc(OCCN4CCCC4)cc3)nc2c1` [XX-272], the pIC50 under setting [1] is 5.00 to 6.00.
